Measured values as given in ChEMBL document CHEMBL4680374, “Carbamate and N-Pyrimidine Mitigate Amide Hydrolysis: Structure-Based Drug Design of Tetrahydroquinoline IDO1 Inhibitors” (ACS Med Chem Lett, 2021).
Converted amounts (≈) assume the structure as drawn.

Tests used:
[1] = Unbound clearance in rat at 2 mg/kg, po or 1 mg/kg, iv; format: ADME, organism-based; details: in vivo
Cytochrome P450 3A4 = Cytochrome P450 3A4 (Homo sapiens, UniProt P08684); assay: Inhibition of CYP3A4 (unknown origin); format: ADME
Cytochrome P450 3A4, sequence (P08684 whole entry): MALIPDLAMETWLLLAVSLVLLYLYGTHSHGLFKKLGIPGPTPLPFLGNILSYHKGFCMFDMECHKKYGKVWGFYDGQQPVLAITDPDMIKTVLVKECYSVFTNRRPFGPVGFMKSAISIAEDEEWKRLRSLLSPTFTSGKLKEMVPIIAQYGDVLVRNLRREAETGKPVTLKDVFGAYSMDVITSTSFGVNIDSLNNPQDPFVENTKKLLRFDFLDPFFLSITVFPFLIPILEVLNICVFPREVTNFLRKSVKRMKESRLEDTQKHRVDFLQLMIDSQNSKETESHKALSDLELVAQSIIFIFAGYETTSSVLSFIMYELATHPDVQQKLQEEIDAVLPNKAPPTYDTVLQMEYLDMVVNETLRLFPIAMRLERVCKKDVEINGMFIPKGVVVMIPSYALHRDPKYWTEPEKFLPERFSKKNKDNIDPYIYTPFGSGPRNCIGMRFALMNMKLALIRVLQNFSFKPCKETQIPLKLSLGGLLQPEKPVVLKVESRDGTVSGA

[2] = Protein binding in human plasma assessed as unbound fraction; format: ADME, cell-free
[3] = Lipophilicity, log D of compound in PBS buffer at pH 7 at 200 uM incubated for 24 hrs in shaker by UPLC/DAD analysis; format: physicochemical
Cytochrome P450 2C9 = Cytochrome P450 2C9 (Homo sapiens, UniProt P11712); assay: Inhibition of CYP2C9 (unknown origin); format: ADME
Cytochrome P450 2C9, sequence (P11712 whole entry): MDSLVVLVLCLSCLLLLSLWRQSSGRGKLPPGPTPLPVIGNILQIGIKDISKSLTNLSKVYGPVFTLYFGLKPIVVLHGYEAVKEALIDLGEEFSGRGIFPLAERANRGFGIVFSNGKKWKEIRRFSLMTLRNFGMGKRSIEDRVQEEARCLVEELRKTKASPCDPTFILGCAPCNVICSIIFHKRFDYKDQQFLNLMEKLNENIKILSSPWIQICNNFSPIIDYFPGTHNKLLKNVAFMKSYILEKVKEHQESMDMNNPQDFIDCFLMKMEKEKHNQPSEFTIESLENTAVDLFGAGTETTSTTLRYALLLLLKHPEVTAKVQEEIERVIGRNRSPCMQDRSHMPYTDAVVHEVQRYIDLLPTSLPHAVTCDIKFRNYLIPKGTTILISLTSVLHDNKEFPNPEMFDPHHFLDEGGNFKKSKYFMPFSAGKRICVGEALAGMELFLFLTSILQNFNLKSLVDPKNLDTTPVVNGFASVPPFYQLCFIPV

[4] = Solubility of compound in PBS buffer at pH 2 at 200 uM incubated for 24 hrs in shaker by UPLC-DAD analysis; format: physicochemical
[5] = Apparent permeability of compound; format: ADME; details: not told
[6] = Solubility of compound in PBS buffer at pH 7 at 200 uM incubated for 24 hrs in shaker by UPLC-DAD analysis; format: physicochemical
[7] = Oral bioavailability in rat at 2 mg/kg; format: ADME, organism-based; details: in vivo
[8] = target: Voltage-gated inwardly rectifying potassium channel KCNH2 (Homo sapiens, UniProt Q12809); assay: Displacement of [35S]-MK499 binding to human ERG expressed in HEK293 cells incubated for 2 hrs by liquid scintillation counting method; format: cell-based
Voltage-gated inwardly rectifying potassium channel KCNH2, sequence (Q12809 whole entry): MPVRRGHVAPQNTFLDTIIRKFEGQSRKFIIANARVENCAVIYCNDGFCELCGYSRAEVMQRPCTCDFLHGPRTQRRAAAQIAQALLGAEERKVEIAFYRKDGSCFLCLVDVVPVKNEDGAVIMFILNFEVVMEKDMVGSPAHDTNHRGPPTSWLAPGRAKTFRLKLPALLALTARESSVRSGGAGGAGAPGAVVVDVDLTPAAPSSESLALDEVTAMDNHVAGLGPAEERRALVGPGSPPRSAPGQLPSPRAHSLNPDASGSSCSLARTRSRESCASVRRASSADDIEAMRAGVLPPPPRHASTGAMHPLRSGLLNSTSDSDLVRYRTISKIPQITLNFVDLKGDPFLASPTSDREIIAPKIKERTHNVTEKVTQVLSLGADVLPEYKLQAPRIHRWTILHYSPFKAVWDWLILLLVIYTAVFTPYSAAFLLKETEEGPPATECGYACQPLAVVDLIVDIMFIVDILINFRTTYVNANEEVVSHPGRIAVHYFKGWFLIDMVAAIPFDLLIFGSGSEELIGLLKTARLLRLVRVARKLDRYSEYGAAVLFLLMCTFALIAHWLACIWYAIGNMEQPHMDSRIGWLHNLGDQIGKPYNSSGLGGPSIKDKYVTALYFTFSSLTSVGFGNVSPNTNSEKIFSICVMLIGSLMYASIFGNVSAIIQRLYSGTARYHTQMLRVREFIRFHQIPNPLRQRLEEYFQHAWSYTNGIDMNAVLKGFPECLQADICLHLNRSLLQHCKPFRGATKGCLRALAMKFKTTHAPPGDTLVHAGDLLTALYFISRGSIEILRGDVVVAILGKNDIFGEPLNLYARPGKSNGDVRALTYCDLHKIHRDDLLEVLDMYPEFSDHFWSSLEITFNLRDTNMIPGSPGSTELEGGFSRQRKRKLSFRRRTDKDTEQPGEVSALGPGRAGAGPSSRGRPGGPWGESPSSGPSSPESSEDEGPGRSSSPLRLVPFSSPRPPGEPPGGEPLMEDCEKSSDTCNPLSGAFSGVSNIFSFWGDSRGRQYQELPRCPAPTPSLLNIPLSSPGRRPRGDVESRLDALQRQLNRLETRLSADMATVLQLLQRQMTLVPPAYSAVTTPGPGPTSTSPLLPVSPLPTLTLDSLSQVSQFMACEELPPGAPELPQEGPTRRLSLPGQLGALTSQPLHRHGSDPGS

[9] = Plasma clearance in rat at 2 mg/kg, po or 1 mg/kg, iv; format: ADME, organism-based
[10] = Half life in rat at 2 mg/kg, po or 1 mg/kg, iv; format: ADME, organism-based; details: in vivo
[11] = Protein binding in rat plasma assessed as unbound fraction; format: ADME, cell-free
[12] = Inhibition of Na ion channel (unknown origin); set-up: species or system Homo sapiens
[13] = Inhibition of Ca ion channel (unknown origin); set-up: species or system Homo sapiens
[14] = Metabolic stability in human hepatocytes at 30 uM measured upto 90 mins by LC-MS analysis; format: ADME, cell-based, Hepatocyte
[15] = Metabolic stability in rat hepatocytes at 30 uM measured upto 90 mins by LC-MS analysis; format: ADME, cell-based, Hepatocyte
[16] = target: Indoleamine 2,3-dioxygenase 1 (Homo sapiens) (UniProt P14902); details: Blood, time 1095.0 min
Indoleamine 2,3-dioxygenase 1 (Homo sapiens), sequence (P14902 whole entry, looked up): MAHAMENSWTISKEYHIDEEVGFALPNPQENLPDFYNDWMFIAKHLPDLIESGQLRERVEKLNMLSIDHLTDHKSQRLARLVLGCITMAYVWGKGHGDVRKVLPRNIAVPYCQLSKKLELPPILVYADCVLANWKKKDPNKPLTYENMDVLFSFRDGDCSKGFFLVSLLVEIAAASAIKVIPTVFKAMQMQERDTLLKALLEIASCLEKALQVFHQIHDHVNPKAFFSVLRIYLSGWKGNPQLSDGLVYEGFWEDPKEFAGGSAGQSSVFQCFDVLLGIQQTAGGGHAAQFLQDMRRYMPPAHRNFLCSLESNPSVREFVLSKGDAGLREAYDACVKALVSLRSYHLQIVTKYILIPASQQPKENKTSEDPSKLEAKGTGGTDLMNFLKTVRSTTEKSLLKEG

Row | SMILES | logD at 24 h, 200 µM [3] | solubility at 24 h, 200 µM [4] [µM] | solubility at 24 h, 200 µM [6] [µM] | IC50 [8] [µM] | further results
1 | C[C@@H](NC(=O)c1ccc(F)cc1)c1ccc2c(n1)CCCN2C(=O)OC1CC1 | 2.8 | 181 (≈ 69.4 µg/mL) | 156 (≈ 59.8 µg/mL) | 20 | CL free [1]: 221 mL/min/kg; IC50 (Cytochrome P450 3A4): 60 µM; fraction unbound [2]: 0.094; IC50 (Cytochrome P450 2C9): 6.2 µM; Papp [5]: 32 ×10⁻⁶ cm/s; bioavailability [7]: 40%; clearance [9]: 14 mL/min/kg; half-life [10]: 1.1 h; fraction unbound [11]: 0.11; IC50 [12]: 60 µM; IC50 [13]: 60 µM
2 | C[C@@H](NC(=O)c1ccc(F)cc1)c1ccc2c(n1)CCCN2C(=O)OCC(F)(F)F | 3 | 200 (≈ 85.1 µg/mL) | 132 (≈ 56.2 µg/mL) |  | 
3 | C[C@H](NC(=O)c1ccc(Cl)cc1)c1ccc2c(c1)CCCN2C(=O)c1cccc(Cl)c1 | 3.7 | < 1 | 3 (≈ 1.36 µg/mL) | 1 | 
4 | C[C@@H](NC(=O)c1ccc(F)cc1)c1ccc2c(n1)CCCN2C(=O)C1(C(F)(F)F)CC1 | 2.9 | 187 (≈ 81.4 µg/mL) | 162 (≈ 70.5 µg/mL) |  | Stabilty [14]: Stable; Stabilty [15]: Stable
5 | C[C@@H](NC(=O)c1ccc(F)cc1)c1ccc2c(n1)CCCN2c1ccnc(C(F)(F)F)n1 |  | 183 (≈ 81.5 µg/mL) | 166 (≈ 73.9 µg/mL) | 25 | IC50 (Cytochrome P450 3A4): 43 µM; fraction unbound [2]: 0.05; IC50 (Cytochrome P450 2C9): 18 µM; Papp [5]: 33 ×10⁻⁶ cm/s; fIC50 [16]: 2.1 nM; fraction unbound [11]: 0.037; IC50 [12]: 7 µM; IC50 [13]: 6 µM
6 | C[C@@H](NC(=O)c1ccc(Cl)cc1)c1ccc2c(c1)OCCN2C(=O)c1cccc(Cl)c1 | 3.6 | 1 (≈ 0.455 µg/mL) | 3 (≈ 1.37 µg/mL) | 6.9 | 
7 | Cc1cc(N2CCCc3nc([C@@H](C)NC(=O)c4ccc(F)cc4)ccc32)ccn1 | 2 | 177 (≈ 69.1 µg/mL) | 165 (≈ 64.4 µg/mL) | 0.73 | Stabilty [14]: Stable; Stabilty [15]: Stable
8 | C[C@@H](NC(=O)c1ccc(F)cc1)c1ccc2c(n1)CCCN2c1ccccn1 | 2.7 | 197 (≈ 74.2 µg/mL) | 151 (≈ 56.8 µg/mL) |  | 
9 | CC(C)CC(=O)N1CCCc2cc(CNC(=O)c3ccc(Cl)cc3)ccc21 | 3.3 | 13 (≈ 5 µg/mL) | 13 (≈ 5 µg/mL) | 22 | 
10 | Cc1nccc(N2CCCc3nc([C@@H](C)NC(=O)c4ccc(F)cc4)ccc32)n1 |  | 168 (≈ 65.8 µg/mL) | 166 (≈ 65 µg/mL) | 18 | 
11 | C[C@@H](NC(=O)c1ccc(F)cc1)c1ccc2c(n1)CCCN2c1ncccn1 | 2.4 | 139 (≈ 52.5 µg/mL) | 5 (≈ 1.89 µg/mL) | 20 | 
12 | C[C@@H](NC(=O)c1ccc(Cl)cc1)c1cc2c(cn1)N(C(=O)c1cccc(Cl)c1)CCC2 | 3.3 | 152 (≈ 69.1 µg/mL) | 27 (≈ 12.3 µg/mL) | 16 | 
13 | C[C@@H](NC(=O)c1ccc(F)cc1)c1ccc2c(n1)CCCN2c1cnccn1 | 2.1 | 143 (≈ 54 µg/mL) | 4 (≈ 1.51 µg/mL) |  | 
14 | C[C@@H](NC(=O)c1ccc(F)cc1)c1ccc2c(n1)CCCN2C(=O)OC1COC1 | 2 | 176 (≈ 70.3 µg/mL) | 168 (≈ 67.1 µg/mL) |  | 
15 | C[C@@H](NC(=O)c1ccc(F)cc1)c1ccc2c(n1)CCCN2c1cccnc1 | 2.3 | 177 (≈ 66.6 µg/mL) | 147 (≈ 55.3 µg/mL) |  | 
